Legend:
[1] = physical form (amorphous/crystalline) in dose formulation vehicle; type: physicochemical
Source text: Additionally, the vehicle used in the pivotal studies was changed from 0.5% methyl cellulose (400 cps) and 0.1% Tween 80 to distilled water.

[2] = toxicokinetics, 28-day monkey study; type: in vivo, cynomolgus monkey; details: for Cmax / AUC: po; for dose proportionality of systemic exposure (AUCLST): monkeys
CAIA in BALB/c mice = assay: collagen antibody-induced arthritis (CAIA) model; type: in vivo, mouse
[3] = system: proinflammatory cytokines (TNF-α) in LPS-stimulated whole blood; assay: Phase 1 study, whole-blood ex vivo assay with LPS stimulation; type: cell-based, human
[4] = toxicokinetics, exploratory 14-day mouse study; type: in vivo; details: both sexes, CD-1, mouse, plasma, po, mice, read-out: Mean Day 14 AUC0-last
Procedure: A single oral dose study with a 14-day repeat-dose phase was conducted in male and female mice. 250 mg/kg was selected as the highest dose for the repeat dose portion of the study.

[5] = exposure in 28- and 91-day monkey toxicology studies
[6] = toxicokinetics, 7-day monkey study; type: in vivo; details: cynomolgus monkey, plasma, oral, monkeys, read-out: Mean Day 7 AUC0-last
Procedure: (§1) In cynomolgus monkeys, a 7-day repeat dose toxicity study was conducted with doses up to 250 mg/kg/day. […] To aid in dose selection for a subsequent pivotal study, an additional study was conducted to determine the maximum feasible dose under optimal feeding conditions in cynomolgus monkeys. […] Dosing monkeys in the fasted state prior to dosing yielded more consistently higher exposures. Therefore, a dose of 375 mg/kg in 0.5% methyl cellulose (400 cps) and 0.1% Tween 80 administered to fasted monkeys was selected for the 14-day repeat-dose phase of the study, and was considered the maximum feasible dose.

[7] = toxicokinetics, single dose and 14-day monkey study; type: in vivo; details: cynomolgus monkey, plasma, po, monkeys
Procedure: as §1

[8] = toxicokinetics, 28-day mouse study; type: in vivo; details: mice; for AUC / Cmax: Crl:CD1 (ICR), mouse, plasma, po;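 as to AUCLST: AUC to the last measurable time point (AUClast)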
Source text: There were no notable sex-related differences in Compound 1 exposure.
(§2) Additionally, toxicokinetic animals received the vehicle or compound in the same manner and dose levels as the main study groups.

[9] = pivotal 28-day repeat-dose toxicity study in monkeys; type: in vivo, cynomolgus monkey; details: both sexes, cynomolgus monkey, in vivo; monkeys, 28 days, highest dose used; read-out: NOAEL with respect to dose
[10] = system: cynomolgus monkeys (Macaca fascicularis); assay: as above; type: in vivo, cynomolgus monkey
Monkey/Cynomolgus [11] = assay: 7-day repeat dose toxicity study in cynomolgus monkeys; type: in vivo; details: monkeys, 25, 75, 250 mg/kg/day
Procedure: as §1

[12] = 28-day repeat-dose oral toxicity study in mice; details: both sexes, Crl:CD1 (ICR), mouse, in vivo; mice, 28 days
Source text: as §2

Crl:CD1 (ICR) mice = assay: 28-day repeat-dose oral toxicity study in mice; details: mouse, in vivo
Source text: as §2

Monkey/Cynomolgus [13] = assay: single dose (fasted/non-fasted) and 14-day repeat-dose study in cynomolgus monkeys; type: in vivo
Procedure: as §1

[14] = female, 15 mg/kg/day, Study Day 1, female, 15 mg/kg/day
[15] = female, 15 mg/kg/day, Study Day 21, female, 15 mg/kg/day
[16] = female, 100 mg/kg/day, Study Day 1, female, 100 mg/kg/day
[17] = female, 100 mg/kg/day, Study Day 21, female, 100 mg/kg/day
[18] = female, 750 mg/kg/day, Study Day 1, female, 750 mg/kg/day
[19] = female, 750 mg/kg/day, Study Day 21, female, 750 mg/kg/day
[20] = male, 15 mg/kg/day, Study Day 1, male, 15 mg/kg/day
[21] = male, 15 mg/kg/day, Study Day 21, male, 15 mg/kg/day
[22] = male, 100 mg/kg/day, Study Day 1, male, 100 mg/kg/day
[23] = male, 100 mg/kg/day, Study Day 21, male, 100 mg/kg/day
[24] = male, 750 mg/kg/day, Study Day 1, male, 750 mg/kg/day
[25] = male, 750 mg/kg/day, Study Day 21, male, 750 mg/kg/day
[26] = cynomolgus monkey, in vivo, 150 mg/kg/day

## CCOCc1cnc(Cl)nc1Oc1ccc2c(ccc3sc4c(c32)NC[C@@H](C)NC4=O)n1 [Compound 1]
[1]; Tween 80 present in the vehicle
  physical form after dose formulation preparation: changed from an amorphous to a crystalline form, beginning within the first hour
[1]; prepared in distilled water
  time remaining in the amorphous form: at least 24 hours
[2]; cynomolgus monkey, plasma, oral, female monkeys, read-out: AUC0-24, steady state exposure at the NOAEL
  AUC(0-t): ~7840 ng·h/mL
[2]; cynomolgus monkey, plasma, monkey, Study Day 1, male, 375 mg/kg/day
  Cmax: 1960 ng/mL
[2]; cynomolgus, cynomolgus monkey, plasma, monkey, Study Day 21, female, 375 mg/kg/day
  Cmax: 810 ng/mL
[2]; cynomolgus, cynomolgus monkey, plasma, monkey, Study Day 21, male, 375 mg/kg/day
  Cmax: 2340 ng/mL
[2]; female, cynomolgus monkey, plasma, 15 mg/kg/day, monkey, Study Day 1, female, 15 mg/kg/day (so in the source)
  Cmax: 862 ng/mL
[2]; female, cynomolgus monkey, plasma, 15 mg/kg/day, monkey, Study Day 1, female, 15 mg/kg/day (so in the source), read-out: AUCLST
  AUC: 3090 ng·h/mL
[2]; female, cynomolgus monkey, plasma, 150 mg/kg/day, monkey, Study Day 1, female, 150 mg/kg/day
  Cmax: 1390 ng/mL
[2]; female, cynomolgus monkey, plasma, 150 mg/kg/day, monkey, Study Day 1, female, 150 mg/kg/day, read-out: AUCLST
  AUC: 6330 ng·h/mL
[2]; female, cynomolgus monkey, plasma, 150 mg/kg/day, monkey, Study Day 21, female, 150 mg/kg/day, read-out: AUCLST
  AUC: 7840 ng·h/mL
[2]; female, cynomolgus monkey, plasma, 375 mg/kg/day, monkey, Study Day 1, female, 375 mg/kg/day, read-out: AUCLST
  AUC: 16700 ng·h/mL
[2]; female, cynomolgus monkey, plasma, 375 mg/kg/day, monkey, Study Day 21, female, 375 mg/kg/day, read-out: AUCLST
  AUC: 4220 ng·h/mL
[2]; female, cynomolgus, cynomolgus monkey, plasma, 15 mg/kg/day, monkey, Study Day 21, female, 15 mg/kg/day (so in the source)
  Cmax: 818 ng/mL
[2]; female, cynomolgus, cynomolgus monkey, plasma, 15 mg/kg/day, monkey, Study Day 21, female, 15 mg/kg/day (so in the source), read-out: AUCLST
  AUC: 2460 ng·h/mL
[2]; female, cynomolgus, cynomolgus monkey, plasma, 150 mg/kg/day, monkey, Study Day 21, female, 150 mg/kg/day
  Cmax: 1620 ng/mL
[2]; male, cynomolgus monkey, plasma, 15 mg/kg/day, monkey, Study Day 1, male, 15 mg/kg/day (so in the source)
  Cmax: 623 ng/mL
[2]; male, cynomolgus monkey, plasma, 15 mg/kg/day, monkey, Study Day 1, male, 15 mg/kg/day (so in the source), read-out: AUCLST
  AUC: 1750 ng·h/mL
[2]; male, cynomolgus monkey, plasma, 15 mg/kg/day, monkey, Study Day 21, male, 15 mg/kg/day (so in the source)
  Cmax: 465 ng/mL
[2]; male, cynomolgus monkey, plasma, 150 mg/kg/day, monkey, Study Day 1, male, 150 mg/kg/day
  Cmax: 1240 ng/mL
[2]; male, cynomolgus monkey, plasma, 150 mg/kg/day, monkey, Study Day 1, male, 150 mg/kg/day, read-out: AUCLST
  AUC: 5840 ng·h/mL
[2]; male, cynomolgus monkey, plasma, 150 mg/kg/day, monkey, Study Day 21, male, 150 mg/kg/day
  Cmax: 674 ng/mL
[2]; male, cynomolgus monkey, plasma, 375 mg/kg/day, male monkeys (375 mg/kg/day), steady-state, read-out: NOAEL with respect to AUCLST
  AUC: 8790 ng·h/mL
[2]; male, cynomolgus monkey, plasma, 375 mg/kg/day, monkey, Study Day 1, male, 375 mg/kg/day, read-out: AUCLST
  AUC: 14100 ng·h/mL
[2]; male, cynomolgus, cynomolgus monkey, plasma, 15 mg/kg/day, monkey, Study Day 21, male, 15 mg/kg/day (so in the source), read-out: AUCLST
  AUC: 1280 ng·h/mL
[2]; male, cynomolgus, cynomolgus monkey, plasma, 150 mg/kg/day, monkey, Study Day 21, male, 150 mg/kg/day, read-out: AUCLST
  AUC: 3950 ng·h/mL
[2]; male, cynomolgus, cynomolgus monkey, plasma, 375 mg/kg/day, monkey, Study Day 21, male, 375 mg/kg/day, read-out: AUCLST
  AUC: 8790 ng·h/mL
[2]; Day 1, 50 to 375 mg/kg/day
  dose proportionality of systemic exposure (AUCLST): approximately dose-proportional manner
[2]; Day 20, 50 to 375 mg/kg/day
  dose proportionality of systemic exposure (AUCLST): less than dose-proportional manner
CAIA in BALB/c mice; 3 mg/kg, last day of dosing
  % Inhibition, paw swelling: 89.7% paw
CAIA in BALB/c mice; endpoint paw swelling
  Minimally Efficacious Dose: 3 mg/kg
[3]; Part 1, single oral doses 10 mg to 400 mg, by 4 hours, LPS 24 hours
  TNF inhibition in the ex vivo assay: dose dependent increase
[3]; Part 2, 14 days of dosing, doses greater than 10 mg, maximal inhibition at 150 mg
  TNF-α in the ex vivo assay: sustained reductions in TNF-α
[4]; 15 mg/kg/day
  AUC(0-t): 4820 ng·h/mL
[4]; 75 mg/kg/day
  AUC(0-t): 16600 ng·h/mL
[4]; 250 mg/kg/day
  AUC(0-t): 35100 ng·h/mL
[5]; cynomolgus monkey, plasma, oral, 375 mg/kg/day
  AUC: 9120 ng·h/mL
[5]; monkey NOAEL AUCLST vs human 150 mg
  margin of monkey exposure over human 150-mg dose: 6.7 fold
[6]; 25 mg/kg/day
  AUC(0-t): 1090 ng·h/mL
[6]; 75 mg/kg/day
  AUC(0-t): 1170 ng·h/mL
[6]; 250 mg/kg/day
  AUC(0-t): 9440 ng·h/mL
[7]; 375 mg/kg, 375 mg/kg, fasted, read-out: Mean Day 1 AUC0-t
  AUC(0-t): 11500 ng·h/mL
[7]; 375 mg/kg, 375 mg/kg, non-fasted, read-out: Mean Day 1 AUC0-t
  AUC(0-t): 4060 ng·h/mL
[7]; 375 mg/kg/day, fasted, 375 mg/kg/day, read-out: Mean Day 14 AUC0-t
  AUC(0-t): 5510 ng·h/mL
[7]; 500 mg/kg, 500 mg/kg, fasted, read-out: Mean Day 1 AUC0-t
  AUC(0-t): 14300 ng·h/mL
[7]; 500 mg/kg, 500 mg/kg, non-fasted, read-out: Mean Day 1 AUC0-t
  AUC(0-t): 11400 ng·h/mL
[8]; [14]
  AUC: 5360 ng·h/mL
  Cmax: 2980 ng/mL
[8]; [15]
  AUC: 5980 ng·h/mL
  Cmax: 2970 ng/mL
[8]; [16]
  AUC: 40100 ng·h/mL
  Cmax: 14500 ng/mL
[8]; [17]
  AUC: 32800 ng·h/mL
  Cmax: 12300 ng/mL
[8]; [18]
  AUC: 198000 ng·h/mL
  Cmax: 50300 ng/mL
[8]; [19]
  AUC: 135000 ng·h/mL
  Cmax: 23200 ng/mL
[8]; [20]
  AUC: 4410 ng·h/mL
  Cmax: 2930 ng/mL
[8]; [21]
  AUC: 4460 ng·h/mL
  Cmax: 2420 ng/mL
[8]; [22]
  AUC: 29200 ng·h/mL
  Cmax: 13900 ng/mL
[8]; [23]
  AUC: 24900 ng·h/mL
  Cmax: 11700 ng/mL
[8]; [24]
  AUC: 211000 ng·h/mL
  Cmax: 29800 ng/mL
[8]; [25]
  AUC: 92800 ng·h/mL
  Cmax: 19400 ng/mL
[8]; Day 1, 15 to 750 mg/kg/day
  dose proportionality of systemic exposure (AUCLST): approximately dose-proportional manner
[8]; Day 21, 15 to 750 mg/kg/day
  dose proportionality of systemic exposure (AUCLST): less than dose-proportional manner
[9]
  NOAEL at 28 days: 375 mg/kg/day
[10]; cynomolgus monkey, in vivo, 50 mg/kg/day
  clinical observation, stool (non-adverse): discolored and/or watery stool
[10]; [26]
  clinical observation, urine (non-adverse): dose-dependent incidents of discolored urine
  microscopic finding, skeletal muscle (non-adverse): Minimal myofiber degeneration in skeletal muscle
[10]; monkeys, 50, 150, 375 mg/kg/day, 28 days
  mortality, body weight, ophthalmic examinations, electrocardiograms, clinical pathology, macroscopic observations, organ weights: no compound-related effects
Monkey/Cynomolgus [11]
  Findings, 7 days: no compound-related findings in any endpoints
[12]
  NOAEL at 28 days: 100 mg/kg/day
Crl:CD1 (ICR) mice; 15 mg/kg/day
  compound-related findings: no compound-related findings
Crl:CD1 (ICR) mice; 100 mg/kg/day
  microscopic finding, skeletal muscle: Minimal to mild myofiber degeneration in the skeletal muscle
Crl:CD1 (ICR) mice; 750 mg/kg/day
  adverse effect, heart: Minimal to mild myofiber degeneration in the heart
  change in mean absolute reticulocyte count: −29%
  change in mean platelet count: +96%
  leukocyte counts (non-adverse): Minimal to mild decreases in lymphocyte counts and inconsistent decreases in most other leukocyte subtypes
  microscopic finding, duodenum: Minimal to mild erosion/ulceration of the proximal duodenum
  microscopic finding, liver: Centrilobular hepatocellular hypertrophy (typically of minimal severity)
  microscopic finding, thymus: Minimal to mild thymic cortical lymphoid depletion
  organ weights (non-adverse): Increased liver and heart weights
Monkey/Cynomolgus [13]; 375 and 500 mg/kg, fasted and non-fasted
  Findings, single dose phase: No compound-related findings
Monkey/Cynomolgus [13]; fasted, 375 mg/kg/day
  Findings, 14-day phase: No compound-related findings
